According to patent US4107424A, “1-N-[(S)-α-hydroxy-ω-aminoacyl] derivatives of 3',4'-dideoxykanamycin B and 3'-deoxykanamycin B antibiotics” (Zaidan Hojin Biseibutsu Kagaku Kenkyu Kai, priority 1972, dated 1978):
Converted amounts (≈) assume the structure as drawn.

Assays:
[1] = system: Escherichia coli K-12 JR 66/W 677; assay: Minimal inhibitory concentration, agar dilution streak method; assay type: cell-based; details: Escherichia coli, 18 h, read-out: minimum inhibitory concentrations
Description: (§1) *Agar Agar dilution streak method (nutrient agar, 37° C, 18 hours)
(§2) *Agar dilution streak method (nutrient agar, 37° C, 18 hours).

[2] = system: Escherichia coli K-12 LA 290 R 55; assay: as above; assay type: cell-based; details: 18 h, read-out: minimum inhibitory concentrations
Description: as §1, §2

[3] = system: Escherichia coli K-12 ML 1629; assay: as above; assay type: cell-based; details: K12ML1629, nutrient agar, 37° C, 18 hours, drug-resistant strain, read-out: minimum inhibitory concentrations
Description: as §1, §2

[4] = system: Pseudomonas aeruginosa GN 315; assay: as above; assay type: cell-based; details: GN315, nutrient agar, 37° C, 18 hours, drug-resistant strain, read-out: minimum inhibitory concentrations
Description: as §1, §2

[5] = system: Escherichia coli K-12 ML 1410; assay: as above; assay type: cell-based; details: K12ML1410, nutrient agar, 37° C, 18 hours, read-out: minimum inhibitory concentrations
Description: as §1, §2

[6] = system: Escherichia coli K-12 W 677; assay: as above; assay type: cell-based; details: K12W677, nutrient agar, 37° C, 18 hours, read-out: minimum inhibitory concentrations
Description: as §1, §2

[7] = system: Pseudomonas aeruginosa A 3; assay: as above; assay type: cell-based; details: A3, nutrient agar, 37° C, 18 hours, read-out: minimum inhibitory concentrations
Description: as §1, §2

[8] = system: Pseudomonas aeruginosa No.12; assay: as above; assay type: cell-based; details: nutrient agar, 37° C, 18 hours, read-out: minimum inhibitory concentrations
Description: as §1, §2

[9] = system: Staphylococcus aureus FDA 209P; assay: as above; assay type: cell-based; details: FDA209P, nutrient agar, 37° C, 18 hours, read-out: minimum inhibitory concentrations
Description: as §1, §2

[10] = system: gram-positive and gram-negative bacteria; assay: Antibacterial activity (in words); assay type: cell-based; details: for antibacterial activity compared with parent or reference substance: sensitive (and resistant) bacteria; for antibacterial activity: various gram-positive and gram-negative bacteria, including resistant strains
Description: [α]D^22 + 38°, (c 0.85, water).

in vivo = details: mouse, iv
mice = assay: Acute intravenous toxicity (LD50) in mice; details: in words

Compound	MIC [1]	MIC [2]	MIC [3]	MIC [4]	MIC [5]	MIC [6]	MIC [7]	MIC [8]	MIC [9]	antibacterial activity compared with parent or reference substance [10]	antibacterial activity [10]	LD50 (in vivo)	toxicity (mice)
NC[C@H]1O[C@H](O[C@H]2[C@H](O)[C@@H](O[C@H]3O[C@H](CO)[C@@H](O)[C@H](N)[C@H]3O)[C@H](N)C[C@@H]2N)[C@H](N)C[C@@H]1O [3'-deoxykanamycin B]	50 µg/mL (≈ 107 µM)	50 µg/mL (≈ 107 µM)	0.78 µg/mL (≈ 1.67 µM)	100 µg/mL (≈ 214 µM)									
NCC[C@H](O)C(=O)N[C@@H]1C[C@H](N)[C@@H](O[C@H]2O[C@H](CN)[C@@H](O)C[C@H]2N)[C@H](O)[C@H]1O[C@H]1O[C@H](CO)[C@@H](O)[C@H](N)[C@H]1O [AHB-deoxykanamycin B, 1-N-[(S)-4-amino-2-hydroxybutyryl]-3'-deoxykanamycin B]	3.12 µg/mL (≈ 5.49 µM)	0.78 µg/mL (≈ 1.37 µM)	0.78 µg/mL (≈ 1.37 µM)	50 µg/mL (≈ 87.9 µM)	0.78 µg/mL (≈ 1.37 µM)	1.56 µg/mL (≈ 2.74 µM)	0.78 µg/mL (≈ 1.37 µM)	0.78 µg/mL (≈ 1.37 µM)	0.78 µg/mL (≈ 1.37 µM)	antibacterial activity as high as that of their parent substances	high antibacterial activity against the kanamycin-resistant strains	> 100 mg/kg	toxicity as low as that of their parent substances
CNC[C@H]1O[C@H](O[C@H]2[C@H](O)[C@@H](O[C@H]3O[C@H](CO)[C@@H](O)[C@H](N)[C@H]3O)[C@H](NC(=O)[C@@H](O)CCN)C[C@@H]2N)[C@H](N)C[C@@H]1O [AHB-methyldeoxykanamycin B, 1-N-[(S)-4-amino-2-hydroxybutyryl]-3'-deoxy-6'-N-methylkanamycin B]	3.12 µg/mL (≈ 5.35 µM)	0.78 µg/mL (≈ 1.34 µM)	0.78 µg/mL (≈ 1.34 µM)	6.25 µg/mL (≈ 10.7 µM)	0.78 µg/mL (≈ 1.34 µM)	3.12 µg/mL (≈ 5.35 µM)	0.78 µg/mL (≈ 1.34 µM)	0.78 µg/mL (≈ 1.34 µM)	0.78 µg/mL (≈ 1.34 µM)	antibacterial activity as high as that of their parent substances	high antibacterial activity against the kanamycin-resistant strains	> 100 mg/kg	toxicity as low as that of their parent substances
NC[C@H]1O[C@H](O[C@H]2[C@H](O[C@@H]3O[C@H](CO)[C@@H](O)[C@H]3O)[C@@H](O)[C@H](N)C[C@@H]2N)[C@H](N)C[C@@H]1O [3'-deoxyribostamycin]	> 100 µg/mL	> 100 µg/mL	> 100 µg/mL	> 100 µg/mL									
CNC[C@H]1O[C@H](O[C@H]2[C@H](O)[C@@H](O[C@H]3O[C@H](CO)[C@@H](O)[C@H](N)[C@H]3O)[C@H](N)C[C@@H]2N)[C@H](N)C[C@@H]1O [3'-deoxy-6'-N-methylkanamycin B]	50 µg/mL (≈ 104 µM)	50 µg/mL (≈ 104 µM)	1.56 µg/mL (≈ 3.24 µM)	6.25 µg/mL (≈ 13 µM)									
